Patent US20040202728A1, “Method for the destruction of oocysts” (priority 2001, published 2004)

Tested on: Cryptosporidium oocysts
Experiment: Microelectrophoresis of oocysts in the presence of water treatment coagulants
Procedure: The zeta potentials of Cryptosporidium oocysts in the presence 5 mg/L ferric chloride were studied over a pH range 3-10.
As with the ferric flocs, it was possible to differentiate between the alum flocs and the oocyst in solution because of their different size, shape and scattering ability. The zeta potentials of Cryptosporidium oocysts in the presence of 6.8 mg/L alum were studied over a pH range 4-8.

SMILES | adsorption of coagulant species to oocysts (from zeta potentials) (6.8 mg/L, pH range 4-8) | adsorption of coagulant species to oocysts (from zeta potentials) (5 mg/L, pH range 3-10)
O=S(=O)([O-])[O-].O=S(=O)([O-])[O-].O=S(=O)([O-])[O-].[Al+3].[Al+3] [alum] | chemisorbed to the oocyst surface | 
[Cl][Fe]([Cl])[Cl] [ferric chloride] |  | no adsorption
